Converted amounts (≈) assume the structure as drawn. Like-named read-outs stand apart in the source and are kept apart here.
What was measured:
[1] = tested on: C. difficile clinical isolates; assay: MIC against a panel of 20 C. difficile clinical isolates (broth microdilution); assay type: cell-based, Clostridioides difficile; details: Clostridioides difficile; for MIC50: concentration that inhibited 50% of the 20 C. difficile clinical isolates, read-out: MIC50; for MIC: read-out: minimum inhibitory concentration (MIC)
B. fragilis = assay: MIC against human gut microbiota; assay type: cell-based, Bacteroides fragilis; details: Bacteroides fragilis, anaerobic, read-out: minimum inhibitory concentration (MIC)
B. dorei = assay: MIC against human gut microbiota; assay type: cell-based, Bacteroides dorei; details: Phocaeicola dorei; B. dorei HM- 719, BHIS broth, anaerobic; read-out: minimum inhibitory concentration (MIC)
Bif. breve = assay: MIC against human gut microbiota; assay type: cell-based, Bifidobacterium breve; details: Bifidobacterium breve, ATCC15700; Bif. breve ATCC 15700, BHIS broth, anaerobic; read-out: minimum inhibitory concentration (MIC)
Bif. angulatum = assay: MIC against human gut microbiota; assay type: cell-based, Bifidobacterium angulatum; details: Bifidobacterium angulatum; Bif. angulatum HM- 1189, BHIS broth, anaerobic; read-out: minimum inhibitory concentration (MIC)
Bif. adolescentis = assay: MIC against human gut microbiota; assay type: cell-based, Bifidobacterium adolescentis; details: Bifidobacterium adolescentis; Bif. adolescentis HM- 633, BHIS broth, anaerobic; read-out: minimum inhibitory concentration (MIC)
Bif. longum = assay: MIC against human gut microbiota; assay type: cell-based, Bifidobacterium longum; details: Bifidobacterium longum, anaerobic, read-out: minimum inhibitory concentration (MIC)
E. faecium = assay: MIC against human gut microbiota; assay type: cell-based, Enterococcus faecium; details: Enterococcus faecium; E. faecium HM-202, TSB, aerobic; read-out: minimum inhibitory concentration (MIC)
E. fecalis = assay: MIC against human gut microbiota; assay type: cell-based, Enterococcus faecalis; details: Enterococcus faecalis; E. fecalis HM-970, TSB, aerobic; read-out: minimum inhibitory concentration (MIC)
L. casei = assay: MIC against human gut microbiota; assay type: cell-based; details: Lacticaseibacillus casei, ATCC334; L. casei ATCC 334, MRS broth, 5% CO2; read-out: minimum inhibitory concentration (MIC)
L. brevis = assay: MIC against human gut microbiota; assay type: cell-based, Lactobacillus brevis; details: Levilactobacillus brevis, ATCC14864; L. brevis ATCC-14864, MRS broth, 5% CO2; read-out: minimum inhibitory concentration (MIC)
L. rhamanosus = assay: MIC against human gut microbiota; assay type: cell-based, Lactobacillus rhamnoosus; details: Lactobacillus, ATCC53103; L. rhamanosus ATCC-53103, MRS broth, 5% CO2; read-out: minimum inhibitory concentration (MIC)
[2] = tested on: C. difficile ATCC BAA-1870; assay: MIC of active hits by broth microdilution; details: C. difficile ATCC BAA-1870, 48 h anaerobic

Cc1ccc2c(Cl)cc(Cl)c(O)c2n1 [Chlorquinaldol]
MIC50 ([1]; 48 h): 0.125 µg/mL (≈ 0.548 µM)
MIC ([1]; ATCC630, C. difficile ATCC 630): 0.25 µg/mL (≈ 1.1 µM)
MIC ([1]; ATCC43255, C. difficile ATCC 43255): 0.06 µg/mL (≈ 0.263 µM)
MIC ([1]; ATCCBAA1870, C. difficile ATCC BAA-1870 (Ribotype-027), purchased compounds, panel test): 0.125 µg/mL (≈ 0.548 µM)
MIC ([1]; C. difficile CD-1 (Ribotype-027)): 0.125 µg/mL (≈ 0.548 µM)
MIC ([1]; C. difficile CD-6 (Ribotype-027)): 0.125 µg/mL (≈ 0.548 µM)
MIC ([1]; C. difficile CD-10(Ribotype-027)): 0.125 µg/mL (≈ 0.548 µM)
MIC ([1]; C. difficile CD-12): 0.25 µg/mL (≈ 1.1 µM)
MIC ([1]; C. difficile CD-13): 0.25 µg/mL (≈ 1.1 µM)
MIC ([1]; C. difficile CD-15): 0.125 µg/mL (≈ 0.548 µM)
MIC ([1]; C. difficile CD-22): 0.125 µg/mL (≈ 0.548 µM)
MIC ([1]; C. difficile CD-23): 0.125 µg/mL (≈ 0.548 µM)
MIC ([1]; C. difficile CD-24): 0.06 µg/mL (≈ 0.263 µM)
MIC ([1]; C. difficile CD-26 (Ribotype-027)): 0.125 µg/mL (≈ 0.548 µM)
MIC ([1]; C. difficile CD-28): 0.125 µg/mL (≈ 0.548 µM)
MIC ([1]; C. difficile CD-29 (Ribotype-027)): 0.06 µg/mL (≈ 0.263 µM)
MIC ([1]; C. difficile CD-30): 0.5 µg/mL (≈ 2.19 µM)
MIC ([1]; C. difficile NR-49302): 0.125 µg/mL (≈ 0.548 µM)
MIC ([1]; C. difficile NR-49304): 0.06 µg/mL (≈ 0.263 µM)
MIC ([1]; C. difficile NR-49308): 0.06 µg/mL (≈ 0.263 µM)
MIC ([1]; C. difficile NR-49319): 0.06 µg/mL (≈ 0.263 µM)
MIC50 [1]: 0.125 µg/mL (≈ 0.548 µM)
MIC90 ([1]; concentration that inhibited 90% of the 20 C. difficile clinical isolates, read-out: MIC90): 0.25 µg/mL (≈ 1.1 µM)
MIC (B. fragilis; B. fragilis HM- 709, BHIS broth): ≤ 2 µg/mL
MIC (B. fragilis; B. fragilis HM- 718, BHIS broth): ≤ 2 µg/mL
MIC (B. dorei): ≤ 2 µg/mL
MIC (Bif. breve): > 256 µg/mL
MIC (Bif. angulatum): 32 µg/mL (≈ 140 µM)
MIC (Bif. adolescentis): 32 µg/mL (≈ 140 µM)
MIC (Bif. longum; Bif. longum HM- 845, BHIS broth): 128 µg/mL (≈ 561 µM)
MIC (Bif. longum; Bif. longum HM- 846, BHIS broth): 32 µg/mL (≈ 140 µM)
MIC (Bif. longum; Bif. longum HM- 847, BHIS broth): 64 µg/mL (≈ 281 µM)
MIC (Bif. longum; Bif. longum HM- 848, BHIS broth): 64 µg/mL (≈ 281 µM)
MIC (E. faecium): > 256 µg/mL
MIC (E. fecalis): 128 µg/mL (≈ 561 µM)
MIC (L. casei): > 256 µg/mL
MIC (L. brevis): > 256 µg/mL
MIC (L. rhamanosus): > 256 µg/mL
MIC (μM) [2]: 2 µM
MIC ([2]; Clostridioides difficile, ATCCBAA1870, 48 h): 0.91 µg/mL

Avermectin B1
MIC (μM) [2]: 16 µM
MIC (μg/mL) [2]: 27.71 µg/mL

From article PMC11288027, “Exploring novel microbial metabolites and drugs for inhibiting Clostridioides difficile” (mSphere, 2024)
